Results reported in US10639284B2, “Immunomodulator compounds” (CHEMOCENTRYX, INC., priority 2016, dated 2020).
pIC50: −log10 of the molar value.

Molecular target: human PD-L1 / Human PD-1 (Homo sapiens (Human), UniProt Q9NZQ7)
Test: Enzyme-Linked Immunosorbent Assay (ELISA), PD-1/PD-L1 binding
Conditions: Table 2; plate-coated human PD-L1, biotinylated human PD-1; read-out: ELISA IC50
Procedure: Plates were coated with 1 μg/mL of human PD-L1 (obtained from R&D) in PBS overnight at 4° C. The wells were then blocked with PBS containing 2% BSA in PBS (W/V) with 0.05% TWEEN-20 for 1 hour at 37° C. The plates were washed 3 times with PBS/0.05% TWEEN-20 and the samples were diluted to 1:5 in dilution medium in the ELISA plates. Human PD-1 and biotin 0.3 μg/mL (ACRO Biosystems) were added and incubated for 1 hour at 37° C. then washed 3 times with PBS/0.05% TWEEN-20. A second block was added with PBS containing 2% BSA in PBS (W/V)/0.05% TWEEN-20 for 10 min at 37° C. and was washed 3 times with PBS/0.05% TWEEN-20. Streptavidin-HRP was added for 1 hour at 37° C. then washed 3 times with PBS/0.05% TWEEN-20. TMB substrate was added and reacted for 20 min at 37° C. A stop solution (2 N aqueous H2SO4) was added. The absorbance was read at 450 nm using a micro-plate spectrophotometer.
Compounds in Table 2 and Table 3 were prepared by methods as described in the Examples, and evaluated according to the assay below.

human PD-L1 / Human PD-1, sequence (Q9NZQ7 19-239): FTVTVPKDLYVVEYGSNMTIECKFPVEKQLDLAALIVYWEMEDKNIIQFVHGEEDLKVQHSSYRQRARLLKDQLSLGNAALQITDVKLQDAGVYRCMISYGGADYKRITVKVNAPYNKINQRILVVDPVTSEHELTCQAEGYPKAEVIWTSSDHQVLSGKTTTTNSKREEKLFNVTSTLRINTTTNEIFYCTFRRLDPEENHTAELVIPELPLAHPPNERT

| pIC50 | Compound |
| --- | --- |
| 6.30 to 7.00 | C[C@@H](O)[C@H](NCc1cc(Cl)c(O[C@H]2CCc3c(-c4ccccc4F)cccc32)cc1OCc1cncc(C#N)c1)C(N)=O [Example 2.149] |
| 6.30 to 7.00 | CCOc1cc(O[C@H]2CCc3c(-c4ccccc4F)cccc32)c(Cl)cc1CNC(C)(CO)C(=O)O (some centres unmarked) [Example 2.177] |
| > 7.00 | C[C@@](CO)(NCc1cc(Cl)c(O[C@H]2CCc3c(-c4ccccc4F)cccc32)cc1-c1cncc(C#N)c1)C(=O)O [Example 2.159] |
| > 7.00 | C[C@@H](O)[C@H](NCc1cc(Cl)c(O[C@@H]2c3cccc(-c4ccccc4F)c3C[C@H]2F)cc1OCc1cncc(C#N)c1)C(=O)O [Example 2.146] |
| 6.30 to 7.00 | N#Cc1cncc(COc2cc(O[C@H]3CCc4c(-c5ccccc5F)cccc43)c(Cl)cc2CN[C@@H](C(=O)O)c2ccc(O)cc2)c1 [Example 2.175] |
| 6.30 to 7.00 | CCOc1cc(O[C@H]2CCc3c(-c4ccccc4F)cccc32)c(Cl)cc1CN[C@H](C(=O)O)[C@@H](C)O [Example 2.158] |
| 4.70 to 6.30 | CC(C)OC(=O)[C@H](CO)NCc1cc(Cl)c(O[C@H]2CCc3c(-c4ccccc4F)cccc32)cc1OCc1cncc(C#N)c1 [Example 2.172] |
| 6.30 to 7.00 | N#Cc1cncc(COc2cc(O[C@H]3CCc4c(-c5ccccc5F)cccc43)c(Cl)cc2CNC(CO)C(=O)NO)c1 (some centres unmarked) [Example 2.166] |
| 4.70 to 6.30 | CCOC(=O)[C@H](CO)NCc1cc(Cl)c(O[C@H]2CCc3c(-c4ccccc4F)cccc32)cc1OCc1cncc(C#N)c1 [Example 2.162] |
| > 7.00 | C[C@@H](O)[C@H](NCc1cc(Cl)c(O[C@H]2CCc3c(-c4ccc5c(c4Cl)OCCO5)cccc32)cc1OCc1cncc(C#N)c1)C(=O)O [Example 2.160] |

Second part, the compound before the results:

| Compound | pIC50 |
| --- | --- |
| COc1cccc(-c2cccc3c2CC[C@@H]3Oc2cc(OCc3cncc(C#N)c3)c(CN[C@@H](CO)C(=O)O)cc2Cl)c1 [Example 2.015] | > 7.00 |
| CCC(O)C(NCc1cc(Cl)c(O[C@H]2CCc3c(-c4ccccc4F)cccc32)cc1OCc1cncc(C#N)c1)C(=O)O (some centres unmarked) [Example 2.125] | > 7.00 |
| COc1ccc(F)c(-c2cccc3c2CC[C@@H]3Oc2cc(OCc3cncc(C#N)c3)c(CN3CCC(O)CC3)cc2Cl)c1 [Example 2.079] | 6.30 to 7.00 |
| N#Cc1cncc(COc2cc(O[C@@H]3CCc4c(-c5ccccc5)cccc43)c(Cl)cc2CNC[C@@H](O)CC(=O)O)c1 [Example 1.008] | > 7.00 |
| N#Cc1cncc(COc2cc(O[C@H]3CCc4c(-c5ccccc5F)cccc43)c(Cl)cc2CNC2(C(=O)O)CC2)c1 [Example 2.144] | > 7.00 |
| Cc1ccc(-c2cccc3c2CC[C@@H]3Oc2cc(OCc3cncc(C#N)c3)c(CN[C@@H](CO)C(=O)O)cc2Cl)c(F)c1 [Example 2.068] | 6.30 to 7.00 |
| COc1cccc(-c2cccc3c2CCC3CCOc2cc(OCc3cncc(C#N)c3)c(CN3CC(O)C3)cc2Cl)c1F (centres unmarked) [Example 2.088] | 4.70 to 6.30 |
| COc1cccc(-c2cccc3c2CC[C@@H]3Oc2cc(OCc3cncc(C#N)c3)c(CN3CC(O)C3)cc2Cl)c1F [Example 2.051] | > 7.00 |
| N#Cc1cncc(COc2cc(O[C@H]3CCc4c(-c5ccccc5F)cccc43)c(Cl)cc2CNCc2cnn[nH]2)c1 [Example 2.025] | 6.30 to 7.00 |
| Nc1ncc(COc2cc(O[C@H]3CCc4c(-c5ccccc5F)cccc43)c(Cl)cc2CN2CCC(O)CC2)cn1 [Example 2.130] | 6.30 to 7.00 |
| COc1cccc(-c2cccc3c2CCC3CCOc2cc(OCc3cncc(C#N)c3)c(CN[C@@H](CO)C(=O)O)cc2Cl)c1F (some centres unmarked) [Example 2.085] | 4.70 to 6.30 |
| COc1ccc(-c2cccc3c2CC[C@@H]3Oc2cc(OCc3cncc(C#N)c3)c(CN[C@@H](CO)C(=O)O)cc2Cl)cc1OC [Example 2.021] | 4.70 to 6.30 |
| C[C@@H](O)[C@H](NCc1cc(Cl)c(O[C@@H]2CCc3c(-c4ccccc4F)cccc32)cc1OCc1cncc(C#N)c1)C(=O)O [Example 2.138] | > 7.00 |
| N#Cc1cncc(COc2cc(O[C@H]3CCc4c(-c5ccccc5F)cccc43)c(Cl)cc2CN[C@H](C(=O)O)[C@H](O)c2ccccc2)c1 [Example 2.132] | 6.30 to 7.00 |
| N#Cc1cncc(COc2cc(O[C@H]3CCc4c(-c5cc(C#N)ccc5F)cccc43)c(Cl)cc2CN[C@@H](CO)C(=O)O)c1 [Example 2.062] | 4.70 to 6.30 |
| C[C@@H](NCc1cc(Cl)c(O[C@H]2CCc3c(-c4ccccc4F)cccc32)cc1OCc1cncc(C#N)c1)C(=O)O [Example 2.141] | > 7.00 |
| N#Cc1cncc(-c2cc(O[C@H]3CCc4c(-c5ccccc5F)cccc43)c(Cl)cc2CN2CCC(O)CC2)c1 [Example 2.112] | 4.70 to 6.30 |
| COc1cccc(-c2ccc(F)c3c2CCC3Oc2cc(OCc3cncc(C#N)c3)c(CN[C@@H](CO)C(=O)O)cc2Cl)c1F (some centres unmarked) [Example 2.047] | > 7.00 |
| COc1cccc(-c2cccc3c2CC[C@@H]3Oc2cc(OCc3cncc(C#N)c3)c(CN[C@H](C(=O)O)[C@@H](C)O)cc2Cl)c1F [Example 2.106] | > 7.00 |
| N#Cc1cncc(COc2cc(O[C@H]3CCc4c(-c5ccccc5)cccc43)c(Cl)cc2CNCC2CCC(=O)N2)c1 (some centres unmarked) [Example 1.014] | 6.30 to 7.00 |
| N#Cc1cncc(COc2cc(OC3CCc4c(-c5ccccc5)cccc43)c(Cl)cc2CN2CCC2)c1 (centres unmarked) [Example 1.006] | 6.30 to 7.00 |
| N#Cc1cncc(COc2cc(O[C@H]3CCc4c(-c5ccccc5F)cccc43)c(Cl)cc2CN2CCCC(O)C2)c1 (some centres unmarked) [Example 2.030] | 6.30 to 7.00 |
| N#Cc1cncc(COc2cc(O[C@H]3CCc4c(-c5ccccc5Cl)cccc43)c(Cl)cc2CN[C@@H](CO)C(=O)O)c1 [Example 2.005] | > 7.00 |
| CCCOc1cc(O[C@H]2CCc3c(-c4ccccc4F)cccc32)c(Cl)cc1CN[C@@H](CO)C(=O)O [Example 2.074] | 6.30 to 7.00 |

Same assay, conditions: Table 3; plate-coated human PD-L1, biotinylated human PD-1; read-out: ELISA IC50

| pIC50 | Compound |
| --- | --- |
| 4.70 to 6.30 | N#Cc1cncc(COc2cc(O[C@H]3CCc4c(-c5cccc(CO)c5)cccc43)c(Cl)cc2CN[C@@H](CO)C(=O)O)c1 [Example 3.121] |
| > 7.00 | C[C@H](NCc1cc(Cl)c(O[C@H]2CCc3c(-c4ccccc4F)cccc32)cc1OCc1cncc(C#N)c1)C(=O)N[C@@H](C)P(=O)(O)O [Example 3.086] |
| > 7.00 | N#Cc1cncc(COc2cc(O[C@H]3CCc4c(-c5ccccc5F)cccc43)c(Cl)cc2CN[C@H]2CCCC[C@@H]2O)c1 [Example 3.021] |
| 4.70 to 6.30 | N#Cc1cncc(COc2cc(O[C@H]3CCc4c(-c5ccccc5F)cccc43)c(Cl)cc2CN2CC(O)C2)c1 [Example 3.114] |
| 6.30 to 7.00 | C[C@H](NCc1cc(Cl)c(O[C@H]2CCc3c(-c4ccccc4F)cccc32)cc1OCc1cncc(C#N)c1)C(=O)NCC(=O)O [Example 3.058] |
| > 7.00 | N#Cc1cc(C#N)cc(COc2cc(O[C@H]3CCc4c(-c5ccccc5)cccc43)c(Cl)cc2CN[C@@H](CO)C(=O)O)c1 [Example 3.022] |
| 6.30 to 7.00 | CCOC(=O)[C@](C)(CO)NCc1cc(Cl)c(O[C@H]2CCc3c(-c4ccc5c(c4F)OCCO5)cccc32)cc1OCc1cncc(C#N)c1 [Example 3.031] |
| 4.70 to 6.30 | COC(=O)[C@H](CO)NC(C)c1cc(Cl)c(O[C@H]2CCc3c(-c4ccccc4F)cccc32)cc1OCc1cncc(C#N)c1 (some centres unmarked) [Example 3.109] |
| > 7.00 | O=C(O)[C@H](CO)NCc1cc(Cl)c(O[C@H]2CCc3c(-c4ccccc4F)cccc32)cc1OCc1cncc(Br)c1 [Example 3.100] |
| 6.30 to 7.00 | CC(C)[C@@H](NCc1cc(Cl)c(O[C@H]2CCc3c(-c4ccccc4F)cccc32)cc1OCc1cncc(C#N)c1)C(=O)O [Example 3.099] |
| > 7.00 | N#Cc1cncc(COc2cc(O[C@H]3CCc4c(-c5ccccc5F)cccc43)c(Cl)cc2CNCC(=O)NCC(=O)O)c1 [Example 3.062] |
| > 7.00 | N#Cc1cncc(COc2cc(O[C@H]3CCc4c(-c5ccccc5F)cccc43)c(Cl)cc2CN[C@@H]2CCCC[C@H]2O)c1 [Example 3.071] |
| > 7.00 | N#Cc1cncc(COc2cc(O[C@H]3CCc4c(-c5ccccc5F)cccc43)c(Cl)cc2CNC(Cc2cccnc2)C(=O)O)c1 (some centres unmarked) [Example 3.094] |
| 6.30 to 7.00 | CC(Cc1ccccn1)NCc1cc(Cl)c(O[C@H]2CCc3c(-c4ccccc4F)cccc32)cc1OCc1cncc(C#N)c1 (some centres unmarked) [Example 3.052] |
| 4.70 to 6.30 | N#Cc1cncc(COc2cc(O[C@H]3CCc4c(Br)cccc43)c(Cl)cc2CN[C@@H](CO)C(=O)O)c1 [Example 3.028] |
| > 7.00 | N#Cc1ccnc(COc2cc(O[C@H]3CCc4c(-c5ccc6c(c5F)OCCO6)cccc43)c(Cl)cc2CN[C@@H](CO)C(=O)O)c1 [Example 3.026] |
| > 7.00 | C[C@@](CO)(NCc1cc(Cl)c(O[C@H]2CCc3c(-c4ccc5c(c4F)OCCO5)cccc32)cc1OCc1cc(C#N)cc(C#N)c1)C(=O)O [Example 3.005] |
| 4.70 to 6.30 | N#Cc1cncc(COc2cc(O[C@H]3CCc4c(-c5ccccc5F)cccc43)c(Cl)cc2CNc2cncc(CO)c2)c1 [Example 3.097] |
| 4.70 to 6.30 | Cc1cc2cc(CNCc3cc(Cl)c(O[C@H]4CCc5c(-c6ccccc6F)cccc54)cc3OCc3cncc(C#N)c3)ccc2[nH]1 [Example 3.087] |
| 6.30 to 7.00 | N#Cc1cncc(COc2cc(O[C@H]3CCc4c(-c5cccc6ccccc56)cccc43)c(Cl)cc2CN[C@@H](CO)C(=O)O)c1 [Example 3.126] |
| > 7.00 | N#Cc1cncc(COc2cc(O[C@H]3CCc4c(-c5cc6c(c(F)c5F)OCCO6)cccc43)c(Cl)cc2CN[C@@H](CO)C(=O)O)c1 [Example 3.011] |
| 4.70 to 6.30 | COC(=O)Cc1ccccc1-c1cccc2c1CC[C@@H]2Oc1cc(OCc2cncc(C#N)c2)c(CN[C@@H](CO)C(=O)O)cc1Cl [Example 3.078] |
